Measurements as given in ChEMBL document CHEMBL3804819, “2-(Quinolin-4-yloxy)acetamides Are Active against Drug-Susceptible and Drug-Resistant Mycobacterium tuberculosis Strains” (ACS Med Chem Lett, 2016).
In brackets after ≈: the same amount, converted by molar mass.

Assays:
Type in all cases: functional
[1] = tested on: Mycobacterium tuberculosis; assay: Antibacterial activity against isoniazid-resistant Mycobacterium tuberculosis RS-032 clinical isolate harboring katG S315T mutant assessed as reduction in bacterial growth after 7 days by resazurin assay
[2] = tested on: Mycobacterium tuberculosis; assay: Antibacterial activity against multidrug-resistant Mycobacterium tuberculosis PE-003 clinical isolate harboring inhA C(-15)T mutant assessed as reduction in bacterial growth after 7 days by resazurin assay
[3] = tested on: Mycobacterium tuberculosis; assay: Antibacterial activity against isoniazid-resistant Mycobacterium tuberculosis RS-036 clinical isolate harboring inhA C(-15)T mutant assessed as reduction in bacterial growth after 7 days by resazurin assay
[4] = tested on: Mycobacterium tuberculosis; assay: Selectivity ratio of MIC for isoniazid-resistant Mycobacterium tuberculosis RS-032 clinical isolate harboring katG S315T mutant to MIC for Mycobacterium tuberculosis H37Rv

| Compound | MIC [1] | MIC [2] | MIC [3] | Selectivity ratio [4] |
| --- | --- | --- | --- | --- |
| COc1ccc2nc(C)cc(OCC(=O)Nc3ccccc3C)c2c1 | 0.93 µM (≈ 0.313 µg/mL) | 0.11 µM (≈ 0.037 µg/mL) | 0.46 µM (≈ 0.155 µg/mL) | 2 |
| COc1ccc(NC(=O)COc2cc(C)nc3ccc(OC)cc23)c(OC)c1 | 0.81 µM (≈ 0.31 µg/mL) | 0.2 µM (≈ 0.0765 µg/mL) | 0.41 µM (≈ 0.157 µg/mL) | 2 |
| COc1ccc2nc(C)cc(OCC(=O)Nc3ccc(Br)cc3)c2c1 | 0.78 µM (≈ 0.313 µg/mL) | 0.05 µM (≈ 0.0201 µg/mL) | 0.39 µM (≈ 0.156 µg/mL) | 2 |
| COc1cccc(NC(=O)COc2cc(C)nc3ccc(OC)cc23)c1 | 7.08 µM (≈ 2.49 µg/mL) | 0.44 µM (≈ 0.155 µg/mL) | 1.77 µM (≈ 0.624 µg/mL) | 2 |
| COc1ccc2nc(C)cc(OCC(=O)Nc3ccc(C(F)(F)F)cc3)c2c1 | 1.6 µM (≈ 0.625 µg/mL) | 0.1 µM (≈ 0.039 µg/mL) | 0.8 µM (≈ 0.312 µg/mL) | – |
| COc1ccc2nc(C)cc(OCC(=O)Nc3ccc4ccccc4c3)c2c1 | 0.84 µM (≈ 0.313 µg/mL) | 0.05 µM (≈ 0.0186 µg/mL) | 0.1 µM (≈ 0.0372 µg/mL) | 2 |
| COc1ccc2nc(C)cc(OCC(=O)Nc3ccc4c(c3)OCO4)c2c1 | 3.41 µM (≈ 1.25 µg/mL) | 0.21 µM (≈ 0.0769 µg/mL) | 0.85 µM (≈ 0.311 µg/mL) | 2 |
| COc1ccc2nc(C)cc(OCC(=O)Nc3ccccc3OC)c2c1 | 0.88 µM (≈ 0.31 µg/mL) | 0.06 µM (≈ 0.0211 µg/mL) | 0.44 µM (≈ 0.155 µg/mL) | 2 |
| NNC(=O)c1ccncc1 [ISONIAZID] | >70 µM | >70 µM | >70 µM | – |
| COc1ccc2nc(C)cc(OCC(=O)Nc3ccc(Cl)cc3)c2c1 | 0.87 µM (≈ 0.31 µg/mL) | 0.06 µM (≈ 0.0214 µg/mL) | 0.44 µM (≈ 0.157 µg/mL) | 2 |
| COc1ccc2nc(C)cc(OCC(=O)Nc3ccccc3Cl)c2c1 | 1.75 µM (≈ 0.624 µg/mL) | 0.11 µM (≈ 0.0392 µg/mL) | 0.44 µM (≈ 0.157 µg/mL) | – |
| COc1ccc(NC(=O)COc2cc(C)nc3ccc(OC)cc23)cc1 | 0.88 µM (≈ 0.31 µg/mL) | 0.06 µM (≈ 0.0211 µg/mL) | 0.44 µM (≈ 0.155 µg/mL) | 2 |
| COc1ccc2nc(C)cc(OCC(=O)NCc3ccccc3)c2c1 | 3.71 µM (≈ 1.25 µg/mL) | 0.46 µM (≈ 0.155 µg/mL) | 1.85 µM (≈ 0.622 µg/mL) | 2 |
| COc1ccc2nc(C)cc(OCC(=O)Nc3ccccc3)c2c1 | 1.93 µM (≈ 0.622 µg/mL) | 0.24 µM (≈ 0.0774 µg/mL) | 0.48 µM (≈ 0.155 µg/mL) | 2 |
| COc1ccc2nc(C)cc(OCC(=O)Nc3cccc(Cl)c3)c2c1 | 3.5 µM (≈ 1.25 µg/mL) | 0.22 µM (≈ 0.0785 µg/mL) | 0.87 µM (≈ 0.31 µg/mL) | – |
